Values joined by “and” are separate entries in the source; they are usually repeats but may differ in a detail not shown here. Equal entries are not always repeated.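 Following 48 hours of exposure in 96-well plates, responses at five concentrations were used to interpolate endpoints linearly. GI50 is the concentration that inhibits growth by half. TGI marks complete inhibition of growth.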 Where a SMILES comes first, the peptide text is derived from it. Bridges are numbered along the chain shown (N, C = ends). [ ]: non-standard residue; d: D form. The star is where a group is joined. ξ: configuration not given here. ξDab(CH2SO3H) = NC(CCNCS(=O)(=O)O)C(=O)O; Heptanoyl(6-Me) = CC(C)CCCCC(=O)*; Dab = NCC[CH](N)C(=O)O
Tests used:
Test in all cases: DTP human tumour cell line panel, 48 h
SN12C renal = tested on: SN12C renal
CAKI-1 renal = tested on: CAKI-1 renal
COLO 205 colon = tested on: COLO 205 colon
SR leukemia = tested on: SR leukemia
HL-60(TB) leukemia = tested on: HL-60(TB) leukemia
EKVX NSCLC = tested on: EKVX NSCLC
M14 melanoma = tested on: M14 melanoma
NCI-H522 lung = tested on: NCI-H522 lung
UACC-62 melanoma = tested on: UACC-62 melanoma
786-0 renal = tested on: 786-0 renal

Row | Compound | TGI (SN12C renal) | TGI (CAKI-1 renal) | TGI (COLO 205 colon) | TGI (SR leukemia) [µM] | TGI (HL-60(TB) leukemia) | TGI (EKVX NSCLC) | TGI (M14 melanoma) [µM] | TGI (NCI-H522 lung) | TGI (UACC-62 melanoma) | TGI (786-0 renal) [µM] | GI50 (SN12C renal) [µM] | GI50 (CAKI-1 renal) | GI50 (COLO 205 colon) [µM] | GI50 (SR leukemia) [µM] | GI50 (HL-60(TB) leukemia) [µM] | GI50 (EKVX NSCLC) [µM] | GI50 (M14 melanoma) [µM] | GI50 (NCI-H522 lung) | GI50 (UACC-62 melanoma) [µM] | GI50 (786-0 renal) [µM]
1 | O=C(NC(=O)c1ccccc1[N+](=O)[O-])Nc1ccc(Oc2ncc(Cl)cn2)c([N+](=O)[O-])c1 | > 100 µM | > 100 µM | 6.06 µM | > 100 | 1.17 µM | > 100 µM | > 100 | 1.68 µM | > 100 µM | > 100 | – | – | – | – | – | – | – | – | – | –
2 | CCC(C)C1NC(=O)C(CCNCS(=O)(=O)O)NC(=O)C(NC(=O)C(CCNCS(=O)(=O)O)NC(=O)C(NC(=O)C(CCNCS(=O)(=O)O)NC(=O)CCCCC(C)C)C(C)O)CCNC(=O)C(C(C)O)NC(=O)C(CCNCS(=O)(=O)O)NC(=O)C(CCNCS(=O)(=O)O)NC(=O)C(C(C)CC)NC1=O (stereo unspecified) ({Heptanoyl(6-Me)}-[ξDab(CH2SO3H)]T[ξDab(CH2SO3H)][Dab][ξDab(CH2SO3H)]II[ξDab(CH2SO3H)][ξDab(CH2SO3H)]T; lactam 4-C; configuration not given here) | > 25 µM | > 25 µM | 8.85 µM | > 25 | 16.9 µM | > 25 µM | 20.6 | 14.1 µM | > 25 µM | > 25 | 11.2 | > 25 µM | 3.26 | 1.32 | 5.23 | > 25 | 5.72 | 3.84 µM | 7.44 | 13
3 | COc1cc(-c2oc3c(OC)cc(OC)c(O)c3c(=O)c2OC)cc(OC)c1OC | > 100 µM | > 100 µM | > 100 µM | > 100 | > 100 µM | > 100 µM | > 100 | 40.2 µM | > 100 µM | > 100 | – | – | – | – | – | – | – | – | – | –
4 | CCCCCCCCC/C(=N\NC(=O)c1ccncc1)c1ccc(O)c(O)c1O | 35 µM | > 100 µM | 17.4 µM | 24.4 | 0.955 µM | > 100 µM | 1.14 | 23.1 µM | 3.3 µM | 5.75 | 0.207 | 0.088 µM | 0.617 | 0.0576 | 0.288 | 0.244 | 0.175 | 0.418 µM | 0.188 | 0.216
5 | CN(C)CCCCC(C(=O)CBr)(c1ccccc1)c1ccccc1 | 5.07 µM | 2.84 µM | 3.95 µM | 7.02 | 3.95 µM | 7.42 µM | 3.95 | 3.4 µM | 4.14 µM | 4.37 | 1.98 | 1.42 µM | 1.78 | 2.12 | 1.22 | 2.22 | 1.5 | 1.25 µM | 1.64 | 2.12
6 | c1ccc2cc(NCNc3ccc4ccccc4c3)ccc2c1 | 25.8 µM | 42.7 µM | 34.3 µM | 31.4 | 3.79 µM | 65.5 µM | 29.1 | 49.5 µM | 30.7 µM | 40.8 | – | – | – | – | – | – | – | – | – | –
7 | COc1cc(C(=O)N2CCN(c3ccccc3)CC2)c2ccccc2n1 | > 100 µM | > 22.5 µM | 0.659 µM | > 100 | – | > 100 µM | 0.805 | 0.475 µM | > 100 µM | > 100 | 0.485 | 0.043 µM | 0.0623 | 0.0537 | 0.11 | 0.243 | 0.0582 | 0.0324 µM | 0.0482 | 0.127
8 | C[C@]12CC[C@@H]3c4cc(OC(F)F)c(OS(N)(=O)=O)cc4CC[C@H]3[C@@H]1CC[C@@H]2OS(N)(=O)=O | 21.4 µM | 19.8 µM | 21.4 µM | > 100 | 27.6 µM | 22.5 µM | 17.7 | 12.7 µM | 16.8 µM | 16.5 | 2.07 | 1.46 µM | 2.97 | 0.441 | 0.829 | 1.7 | 0.631 | 0.689 µM | 1.38 | 1.8
9 | C=C1C(=O)O[C@H]2C[C@@H]1CC/C(C)=C/CC/C(C)=C/CC[C@@]2(C)O | 65.7 µM | > 100 µM | > 100 µM | 63.6 | 45.7 µM | > 100 µM | > 100 | 79 µM | > 100 µM | > 100 | 24.9 | 34.6 µM | 44.2 | 26.5 | 20.7 | > 100 | 44.4 | 27.4 µM | 44.1 | 43.4
10 | CC1(C)CC[C@]2(C(=O)O)CC[C@]3(C)C(=CC[C@@H]4[C@@]5(C)C[C@H](O)[C@H](O)[C@@](C)(C(=O)O)[C@@H]5CC[C@]43C)[C@@H]2C1 | > 100 µM | > 100 µM | > 100 µM | > 100 | > 31.6 µM | > 100 µM | > 100 | > 100 µM | > 94.2 µM | > 100 | – | – | – | – | – | – | – | – | – | –
11 | O=C(O)C(C(=O)O)P(=S)(S)c1ccccc1 (stereo unspecified) | > 100 µM | > 100 µM | > 100 µM | > 100 | > 100 µM | > 100 µM | > 100 | > 100 µM | > 100 µM | > 100 | – | – | – | – | – | – | – | – | – | –
12 | O=c1c2ccccc2nc(/C=C(\O)c2ccncc2)n1-c1ccc(Cl)cc1 | > 100 µM | > 100 µM | > 100 µM | > 100 | > 100 µM | > 100 µM | > 100 | > 100 µM | > 100 µM | > 100 | – | – | – | – | – | – | – | – | – | –
13 | O=C(NCc1cccnc1)C1COc2cc(-c3cc(=O)c4ccccc4o3)ccc2O1 (stereo unspecified) | > 78 µM | > 84.3 µM | > 100 µM | > 100 | > 46.4 µM | > 100 µM | > 100 | > 100 µM | > 100 µM | > 81.7 | – | – | – | – | – | – | – | – | – | –
14 | Cc1nc(-c2nc(-c3ccc(OC(F)(F)F)cc3)no2)nn1Cc1cccc(N2CCC(S(C)(=O)=O)CC2)c1 | > 100 µM | 29.8 µM | > 100 µM | 97.9 | > 49.5 µM | 48.6 µM | > 100 | > 100 µM | > 100 µM | > 100 | > 31.1 | 3.28 µM | 11.1 | 0.397 | – | 1.6 | 5.66 | > 100 µM | 3.51 | 18.4
15 | O=C1NC2C(=CC(O)C(O)C2O)c2cc3c(cc21)OCO3 (stereo unspecified) | 2.59 µM and 2.29 µM | 1.7 µM and 1.8 µM | 0.595 µM and 0.249 µM and 0.579 µM | 0.566 | 0.282 µM and 0.213 µM and 0.594 µM | 3.06 µM and 2.29 µM | 1.41 | 0.574 µM and 1.41 µM | 2.56 µM and 1.65 µM | 4.93 | 0.156 | 0.331 µM and 0.158 µM | 0.074 | – | – | 0.285 | 0.424 | 0.352 µM and 0.105 µM | 0.266 | 0.544
